Inconclusive results and toxic doses are left out. No stated cut-off is given here; in the data, active means T/C of 150% or more; inactive means T/C below 125%.
System: L1210 leukemia ip in BDF1 mice, survival T/C
Test: NCI In Vivo Anticancer Drug Screen. Data for tumor model L1210 Leukemia (intraperitoneal) in B6D2F1 (BDF1) mice
Conditions: endpoint: mean survival time, higher = longer survival
In short: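 Survival endpoint. Drug-treated group vs vehicle group, expressed as T divided by C. Tumor passaged by transplantation.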

[1] = dose: 100.0 mg/kg/injection, schedule: Q01DX009 (ip), vehicle: saline with Tween-80
[2] = dose: 200.0 mg/kg/injection, schedule: Q01DX009 (ip), vehicle: saline with Tween-80
[3] = dose: 400.0 mg/kg/injection, schedule: Q01DX009 (ip), vehicle: saline with Tween-80
[4] = dose: 100.0 mg/kg/injection, schedule: Q04DX002 (ip), vehicle: Klucel (hydroxypropylcellulose) (HPC)
[5] = dose: 200.0 mg/kg/injection, schedule: Q04DX002 (ip), vehicle: Klucel (hydroxypropylcellulose) (HPC)
[6] = dose: 400.0 mg/kg/injection, schedule: Q04DX002 (ip), vehicle: Klucel (hydroxypropylcellulose) (HPC)
[7] = dose: 3.13 mg/kg/injection, schedule: Q04DX002 (ip), vehicle: saline with Tween-80
[8] = dose: 6.25 mg/kg/injection, schedule: Q04DX002 (ip), vehicle: saline with Tween-80
[9] = dose: 12.5 mg/kg/injection, schedule: Q04DX002 (ip), vehicle: saline with Tween-80
[10] = dose: 25.0 mg/kg/injection, schedule: Q04DX002 (ip), vehicle: saline with Tween-80

Measured: T/C

COc1ccc(CNCCNCCNCc2ccc(OC)cc2)cc1
inactive: [1] 107 % of control | dose: 100.0 mg/kg/injection, schedule: Q04DX003 (ip), vehicle: saline 104 % of control | [2] 109 % of control | dose: 200.0 mg/kg/injection, schedule: Q04DX003 (ip), vehicle: saline 102 % of control | [3] 102 % of control | dose: 400.0 mg/kg/injection, schedule: Q04DX003 (ip), vehicle: saline 104 % of control

N#CC(C#N)=CN
inactive: dose: 100.0 mg/kg/injection, schedule: Q01DX001 (ip), vehicle: Klucel (hydroxypropylcellulose) (HPC) 105 % of control | dose: 200.0 mg/kg/injection, schedule: Q01DX001 (ip), vehicle: Klucel (hydroxypropylcellulose) (HPC) 106 % of control | dose: 400.0 mg/kg/injection, schedule: Q01DX001 (ip), vehicle: Klucel (hydroxypropylcellulose) (HPC) 101 % of control

CCOC(=O)/C=C(/C)Nc1ccc(SC)cc1
inactive: [1] 100 % of control | [2] 96 % of control | [3] 100 % of control

O=S(=O)(F)c1cc(Cl)ccc1O
inactive: [4] 115 % of control | [5] 115 % of control | [6] 105 % of control

O=C1C(=O)C(CCc2ccccc2)C(=O)/C1=C\c1ccccc1 (stereo not drawn)
inactive: dose: 100.0 mg/kg/injection, schedule: Q04DX003 (ip), vehicle: saline with Tween-80 95 % of control | dose: 200.0 mg/kg/injection, schedule: Q04DX003 (ip), vehicle: saline with Tween-80 86 % of control

CC1(C)CCC(C)(C)C(O)C1O (stereo not drawn)
inactive: [4] 92 % of control | [5] 105 % of control | [6] 118 % of control

CCC(=O)OC1(c2ccccc2)CCN(CCCc2ccccc2Cl)CC1
inactive: [7] 103 % of control | [8] 106 % of control | [9] 103 % of control | [10] 106 % of control

CC(=O)OC(Cc1nc2ccccc2s1)(C(F)(F)F)C(F)(F)F
inactive: [7] 97 % of control | [8] 91 % of control | [9] 97 % of control | [10] 94 % of control

— PubChem BioAssay AID248 (DTP/NCI, 2004)
